Source: patent US9505763B2, “Cancer treatment using BMP inhibitor” (Vanderbilt University, priority 2011, dated 2016)

Key:
[1] = system: constitutively active alk6 (ca-alk6); experiment: BRE-luciferase with constitutively active alk6 in H1299 cells; format: cell-based; settings: 1 μM antagonist
Procedure: (§1) To assess the effects of antagonists on a specific type I BMP receptor, 2 μg of constitutively active ca-alk3 and ca-alk6 expression vectors were co-transfected with the BRE-luciferase reporter into H1299 cells with Nucleofector II. Control cells were co-transfected with the pcDNA3 expression vector. After 48 hours the cells were treated with DMSO or a BMP receptor antagonist for 48 hours and luminescence was measured.

[2] = system: H1299 cells; experiment: Cell counts after 7 days; format: cell-based; settings: H1299, DMEM 5% FCS, 10 μM Dorsomorphin or 1 μM DMH1, DMH2, LDN
Procedure: (§2) Cell Counts. A549 and H1299 cells were plated into 6 well plates with 100,000 cells per well. Cells were treated with DMSO or a BMP receptor antagonist for 7 days. The cells were detached with trypsin, stained with trypan blue, and the number of live cells counted using a hemacytometer.

[3] = system: A549 cells; experiment: Cell counts after 7 days; format: cell-based; settings: DMEM 5% FCS, 10 μM Dorsomorphin or 1 μM DMH1, DMH2, LDN
Procedure: as §2

[4] = system: Id1 and Id3 protein; experiment: Western blot for Id1 and Id3; format: cell-based; settings: for protein levels of Id1 and Id3: A549 and H1299 cells
Procedure: (§3) Western Blot Analysis. Total cellular protein was prepared using RIPA buffer containing a protease inhibitor cocktail and protein concentration was measured using the BCA assay as described. In brief, protein was analyzed by SDS-PAGE, transferred to nitrocellulose (Schleicher and Schuell, Keene, N.H.). After blocking, the blots were incubated overnight at 4° C. with the appropriate primary antibody in Tris-buffered saline with 1% Tween (TBST) and 5% non-fat milk. Secondary antibodies were applied for 1 hour at room temperature. Specific proteins were detected using the enhanced chemiluminescence system (Amersham, Arlington Heights, Ill.). The primary antibodies that were used were rabbit monoclonal anti-pSmad 1/5/8 (Cell signaling Technology, Danvers Mass.) rabbit anti-actin, an affinity isolated antigen specific antibody (Sigma, Saint Louis, Mo.), rabbit monoclonal anti-Id1 and rabbit monoclonal anti-Id3 (Calbioreagents, San Mateo, Calif.).

[5] = system: Smad 1/5/8 activity; experiment: BRE-luciferase reporter assay; format: cell-based; settings: H1299 cells; 10 μM Dorsomorphin or 1 μM DMH1, DMH2, LDN; 48 hours; vs DMSO
Procedure: Luciferase Assays. 10^6 H1299 cells were transfected with 2 μg of BRE-luciferace plasmid using a Nucleofector II. […] Cells were lysed with luciferase lysis buffer (Promega). Samples were added to luciferase assay substrate (Promega) and luminsescence measured by the TD-20/20 Luminometer (Turner Designs/Turner BioSystems, Sunnyvale, Calif.). Control samples included luciferase assay substrate alone and luciferase assay substrate plus 1× reporter lysis buffer.

[6] = system: H1299 cells; experiment: Clonogenic growth assay; format: cell-based; settings: 1 μM, 2 weeks
Procedure: (§4) Clonigenic Growth Assay. A549 and H1299 cells were plated into 6 well plates with 500 cells per well. The next day the cells were treated with DMSO or a BMP receptor antagonist for 2 weeks. The colonies were stained with Diff-Quick (IMEB Inc. San Marcos, Calif.) and the total number of colonies per well counted.

[7] = system: A549 cells; experiment: Clonogenic growth assay; format: cell-based; settings: 1 μM, 2 weeks
Procedure: as §4

[8] = target: T1, alk2 (Mus musculus, UniProt P37172); settings: reported [26]; cited from earlier work
T1 construct: host or cells: C2C12
T1 sequence (P37172 21-509): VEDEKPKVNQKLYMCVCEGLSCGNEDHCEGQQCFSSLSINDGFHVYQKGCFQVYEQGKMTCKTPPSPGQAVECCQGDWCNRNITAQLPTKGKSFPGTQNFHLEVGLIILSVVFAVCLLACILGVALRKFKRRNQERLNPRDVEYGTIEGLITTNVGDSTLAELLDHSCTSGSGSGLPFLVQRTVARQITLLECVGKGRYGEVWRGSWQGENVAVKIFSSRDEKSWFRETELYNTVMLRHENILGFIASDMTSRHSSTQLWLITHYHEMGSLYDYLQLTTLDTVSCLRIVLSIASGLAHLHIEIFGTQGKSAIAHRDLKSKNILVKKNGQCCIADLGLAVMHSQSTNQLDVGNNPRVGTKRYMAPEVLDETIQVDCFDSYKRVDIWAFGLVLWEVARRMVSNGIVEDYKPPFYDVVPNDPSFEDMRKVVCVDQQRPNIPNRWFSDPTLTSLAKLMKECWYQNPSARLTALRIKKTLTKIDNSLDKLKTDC

[9] = system: AMP kinase; settings: compared with Dorsomorphin and LDN; cited from earlier work
[10] = system: phosphorylated Smad 1/5/8; experiment: Western blot for phosphorylated Smad 1/5/8; format: cell-based; settings: for level of phosphorylated Smad 1/5/8 expression: lung cancer cell lines (H1299, A549)
Procedure: as §3

[11] = target: T2, alk6 (Mus musculus, UniProt P36898); settings: reported [26]; cited from earlier work
T2 construct: host or cells: C2C12
T2 sequence (P36898 14-502): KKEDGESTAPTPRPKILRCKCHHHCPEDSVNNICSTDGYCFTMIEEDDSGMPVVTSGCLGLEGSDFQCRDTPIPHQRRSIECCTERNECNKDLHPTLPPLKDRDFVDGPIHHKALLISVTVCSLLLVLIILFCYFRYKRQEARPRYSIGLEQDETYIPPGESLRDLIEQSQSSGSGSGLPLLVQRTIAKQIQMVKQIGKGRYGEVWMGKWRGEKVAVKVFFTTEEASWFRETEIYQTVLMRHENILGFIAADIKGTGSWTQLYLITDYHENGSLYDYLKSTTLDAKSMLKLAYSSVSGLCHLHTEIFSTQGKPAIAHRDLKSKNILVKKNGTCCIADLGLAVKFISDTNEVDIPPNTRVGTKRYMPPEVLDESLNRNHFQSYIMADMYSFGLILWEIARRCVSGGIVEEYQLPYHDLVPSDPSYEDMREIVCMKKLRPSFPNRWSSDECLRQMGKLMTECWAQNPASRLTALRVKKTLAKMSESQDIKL

[12] = target: T3, alk3 (Mus musculus, UniProt P36895); settings: reported [26]; cited from earlier work
T3 construct: host or cells: C2C12
T3 sequence (P36895 24-532): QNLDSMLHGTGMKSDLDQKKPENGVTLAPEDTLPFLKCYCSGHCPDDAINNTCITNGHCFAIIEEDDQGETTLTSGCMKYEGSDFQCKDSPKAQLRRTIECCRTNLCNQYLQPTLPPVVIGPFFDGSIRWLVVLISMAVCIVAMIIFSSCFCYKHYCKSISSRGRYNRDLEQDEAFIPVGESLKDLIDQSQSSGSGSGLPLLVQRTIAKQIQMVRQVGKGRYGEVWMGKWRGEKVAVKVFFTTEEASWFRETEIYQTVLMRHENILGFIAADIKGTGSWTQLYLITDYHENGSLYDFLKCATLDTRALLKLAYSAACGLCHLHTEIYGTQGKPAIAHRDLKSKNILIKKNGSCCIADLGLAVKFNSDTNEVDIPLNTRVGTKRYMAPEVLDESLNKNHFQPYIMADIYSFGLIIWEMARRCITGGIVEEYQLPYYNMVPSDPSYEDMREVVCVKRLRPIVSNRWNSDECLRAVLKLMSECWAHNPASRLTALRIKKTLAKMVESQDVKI

[13] = target: T4, TGFβ receptor alk5 (Homo sapiens, UniProt P36897); settings: compared with Dorsomorphin and LDN; cited from earlier work
T4 sequence (P36897 34-503): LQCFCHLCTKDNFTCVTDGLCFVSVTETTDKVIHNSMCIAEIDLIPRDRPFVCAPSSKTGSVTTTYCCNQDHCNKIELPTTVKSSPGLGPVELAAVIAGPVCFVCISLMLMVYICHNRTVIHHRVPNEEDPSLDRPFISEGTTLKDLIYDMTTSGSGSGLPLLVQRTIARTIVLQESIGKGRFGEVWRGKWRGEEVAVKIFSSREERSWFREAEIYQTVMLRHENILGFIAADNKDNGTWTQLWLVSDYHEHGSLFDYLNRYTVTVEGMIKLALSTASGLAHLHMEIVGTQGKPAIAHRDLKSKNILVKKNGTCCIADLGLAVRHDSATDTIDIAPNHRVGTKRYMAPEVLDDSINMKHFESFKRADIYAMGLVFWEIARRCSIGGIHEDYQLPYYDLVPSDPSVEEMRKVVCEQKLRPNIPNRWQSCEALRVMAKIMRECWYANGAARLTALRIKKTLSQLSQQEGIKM

[14] = target: VEGF II (Homo sapiens, UniProt P35968); settings: compared with Dorsomorphin and LDN; cited from earlier work
Sequence of VEGF II (P35968 20-1356): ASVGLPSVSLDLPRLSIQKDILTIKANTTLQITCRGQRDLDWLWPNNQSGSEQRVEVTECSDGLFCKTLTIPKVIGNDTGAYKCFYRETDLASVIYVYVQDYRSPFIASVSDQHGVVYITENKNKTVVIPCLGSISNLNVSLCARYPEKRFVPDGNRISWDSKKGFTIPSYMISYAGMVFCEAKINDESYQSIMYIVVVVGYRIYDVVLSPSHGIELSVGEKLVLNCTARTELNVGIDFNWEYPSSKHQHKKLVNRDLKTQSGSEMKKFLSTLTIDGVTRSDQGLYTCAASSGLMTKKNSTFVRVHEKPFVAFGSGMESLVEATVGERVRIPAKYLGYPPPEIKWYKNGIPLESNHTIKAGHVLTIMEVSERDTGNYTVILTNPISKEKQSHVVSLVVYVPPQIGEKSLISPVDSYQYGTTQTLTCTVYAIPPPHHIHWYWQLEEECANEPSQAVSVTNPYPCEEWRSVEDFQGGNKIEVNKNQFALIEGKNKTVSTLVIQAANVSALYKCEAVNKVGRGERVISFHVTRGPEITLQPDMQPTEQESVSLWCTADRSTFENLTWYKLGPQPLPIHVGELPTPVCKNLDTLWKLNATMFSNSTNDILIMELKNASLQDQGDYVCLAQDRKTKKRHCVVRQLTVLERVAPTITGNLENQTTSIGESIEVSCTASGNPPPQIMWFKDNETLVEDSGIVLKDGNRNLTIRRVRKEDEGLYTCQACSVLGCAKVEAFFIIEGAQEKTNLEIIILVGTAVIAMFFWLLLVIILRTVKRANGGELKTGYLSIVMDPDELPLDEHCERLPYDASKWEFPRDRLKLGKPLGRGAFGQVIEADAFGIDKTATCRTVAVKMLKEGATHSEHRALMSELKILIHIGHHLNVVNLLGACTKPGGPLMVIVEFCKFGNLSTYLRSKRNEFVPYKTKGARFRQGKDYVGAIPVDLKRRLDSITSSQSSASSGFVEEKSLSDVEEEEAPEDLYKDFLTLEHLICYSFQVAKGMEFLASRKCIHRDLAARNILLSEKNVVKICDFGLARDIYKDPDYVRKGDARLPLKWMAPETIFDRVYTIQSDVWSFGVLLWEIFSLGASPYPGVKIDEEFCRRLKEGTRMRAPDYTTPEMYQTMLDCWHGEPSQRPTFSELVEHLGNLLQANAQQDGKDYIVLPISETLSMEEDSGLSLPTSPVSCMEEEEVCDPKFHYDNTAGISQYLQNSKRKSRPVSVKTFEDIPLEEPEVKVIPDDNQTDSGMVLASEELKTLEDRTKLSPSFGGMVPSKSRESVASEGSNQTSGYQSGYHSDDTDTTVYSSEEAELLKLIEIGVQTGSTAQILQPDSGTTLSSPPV

[15] = target: T5, constitutively active alk3 (ca-alk3) (Homo sapiens, UniProt P36894, Q233D); experiment: BRE-luciferase with constitutively active alk3 in H1299 cells; format: cell-based; settings: 1 μM antagonist
T5 construct: expressed in transfected cells; host or cells: H1299
T5 sequence (P36894 24-532 Q233D): as the sequence (P36895 24-532) above, with L16S, P21S, T74A, V133L, V142I, G164R, Q210D, I373V counted along it
Procedure: as §1

[16] = target: platelet-derived growth factor receptor-β (Homo sapiens, UniProt P09619); settings: compared with Dorsomorphin and LDN; cited from earlier work
Sequence of platelet-derived growth factor receptor-β (P09619 33-1106, species assumed): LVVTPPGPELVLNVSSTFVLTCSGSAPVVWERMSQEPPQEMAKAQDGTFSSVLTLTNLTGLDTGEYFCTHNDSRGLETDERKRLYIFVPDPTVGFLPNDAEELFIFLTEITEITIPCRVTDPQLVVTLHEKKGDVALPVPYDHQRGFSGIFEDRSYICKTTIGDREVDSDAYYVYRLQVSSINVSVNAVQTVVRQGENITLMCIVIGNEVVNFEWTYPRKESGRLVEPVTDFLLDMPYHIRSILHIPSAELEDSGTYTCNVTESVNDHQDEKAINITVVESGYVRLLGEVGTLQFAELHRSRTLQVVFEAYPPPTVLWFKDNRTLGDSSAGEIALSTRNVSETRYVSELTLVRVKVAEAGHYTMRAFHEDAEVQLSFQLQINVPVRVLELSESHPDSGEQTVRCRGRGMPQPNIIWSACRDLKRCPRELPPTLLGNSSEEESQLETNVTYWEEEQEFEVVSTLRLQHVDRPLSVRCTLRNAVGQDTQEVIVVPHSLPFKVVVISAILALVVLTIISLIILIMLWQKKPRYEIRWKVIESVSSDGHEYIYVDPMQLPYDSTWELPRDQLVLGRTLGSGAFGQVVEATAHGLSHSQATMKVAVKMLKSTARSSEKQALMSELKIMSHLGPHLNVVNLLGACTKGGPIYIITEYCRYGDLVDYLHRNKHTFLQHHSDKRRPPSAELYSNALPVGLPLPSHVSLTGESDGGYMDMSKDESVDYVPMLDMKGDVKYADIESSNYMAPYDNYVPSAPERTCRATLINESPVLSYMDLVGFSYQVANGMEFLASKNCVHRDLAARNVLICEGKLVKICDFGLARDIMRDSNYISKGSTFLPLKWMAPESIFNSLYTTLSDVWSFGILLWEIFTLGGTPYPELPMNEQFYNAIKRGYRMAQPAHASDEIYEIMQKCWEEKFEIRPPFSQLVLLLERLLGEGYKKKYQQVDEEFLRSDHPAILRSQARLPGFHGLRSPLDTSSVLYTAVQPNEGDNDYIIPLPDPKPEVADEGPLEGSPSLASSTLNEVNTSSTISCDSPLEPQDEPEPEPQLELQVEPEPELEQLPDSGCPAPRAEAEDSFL

[17] = system: A549 cells; experiment: Ethidium bromide uptake cell death assay; format: cell-based; settings: 48 hours, 10 μM Dorsomorphin or 1 μM selective antagonist
Procedure: Cell Death Assay: A549 and H1299 cells were plated in 6 well plates with 10^6 cells per well. Cells were treated with DMSO or a BMP receptor antagonist for 12 and 48 hours. Adherent and floating cells were harvested and incubated with 0.1 mg/ml of ethidium bromide. Immediately after staining approximately 100 cells were counted and the percentage of cells that took up ethidium bromide was determined.

[18] = system: Id1, Id2, and Id3 expression; experiment: Quantitative RT-PCR for Id family members; format: cell-based; settings: A549 and H1299 cell lines; 10 μM Dorsomorphin, 1 μM DMH1 or DMH2; 48 hours
Procedure: Quantification of Gene Expression. RNA was extracted using the RNeasy kit as per the manufacturer's instructions (Qiagen, Valencia, Calif.). DNAase was used to remove any DNA contamination. cDNA was generated using Advantage RT for PCR kit (BD BiosciencesClontech, Palo Alto, Calif.). Quantitative PCR was performed with the Stratagene Mx3005p (Agilent Technologies) and predesigned validated Taq-Man gene expression assays according to the manufacturer's specifications (Applied Biosystems, Foster City, Calif.). Reference numbers used are: GAPDH (Hs99999905_m1), ACVRL1 (alk1) (Hs00163543_m1), ACVR1A (alk2) (Hs00153836_m1), BMR1A (alk3) (Hs00831730_s1), BMPR1B (alk6) (Hs00176144_m1), Id1 (Hs00357821_g1), Id2 (Hs00747379_m1), and Id3 (Hs00171409-m1). Negative control included all reagents except cDNA. Expression was normalized to GAPDH using the formula […].

[19] = system: H1299 cells; experiment: Soft agar assay (anchorage independent growth); format: cell-based; settings: H1299 in soft agar; 1 μM; 2 weeks
Procedure: (§5) Soft Agar Assay. A 1% agar mixture was prepared in sterile double-distilled water, microwaved, and cooled to 40° C. in a water bath. DMEM was also incubated at 40° C. Equal amounts of each were mixed and 1 ml added to each well of a six well plate. The base agar was allowed to solidify. A 0.7% agar mixture was prepared then cooled to 40° degrees. Cells were trypsinized and counted. Cells (2500 cells per well) were placed in pre-warmed DMEM containing DMSO or DMH1 […]. The treated cells were then mixed with the 0.7% agar and 2 ml placed on top of the base agar. Once solidified, 1 ml of DMEM was placed on top of the agar. […]

[20] = system: A549 cells; experiment: Soft agar assay (anchorage independent growth); format: cell-based; settings: A549 in soft agar; 1 μM; 2 weeks
Procedure: as §5

Compound	inhibition of ca-alk6 activity (BRE-luciferase) [1]	protein levels of Id1 and Id3 [4]	Smad 1/5/8 activity (BRE-luciferase activity) [5]	inhibition of alk2 activity [8]	activity for AMP kinase (comparison) [9]	level of phosphorylated Smad 1/5/8 expression [10]	inhibition of alk6 activity [11]	inhibition of alk3 activity [12]	also measured
c1ccc2c(-c3cnn4cc(-c5ccc(N6CCNCC6)cc5)cnc34)ccnc2c1 [LDN, LDN-193189, reference compound]	very similar to that of DMH2	decrease	significant decrease	effectively inhibits	less AMP kinse activity than Dorsomorphin	decreased	effectively inhibits	effectively inhibits	cell growth (number of cells) [2]: more growth inhibition than DMH1; cell growth (number of cells) [3]: more growth inhibition than DMH1; clonogenic growth [6]: inhibited more by DMH2 and LDN than DMH1; clonogenic growth [7]: inhibited more by DMH2 and LDN than DMH1; phosphorylated Smad 1/5/8 expression ([10]; A549 cells): decrease
CC(C)Oc1ccc(-c2cnc3c(-c4ccnc5ccccc45)cnn3c2)cc1 [DMH1]	partially inhibited alk6 but not as effectively as DMH2	decrease	significant decrease	inhibited	less activity	decreased	negligible inhibitory effects	inhibited	activity for TGFβ receptor alk5 (comparison) [13]: less activity; reduction of Id1 protein expression (comparison) ([4]; H1299 and A549 cells, 1 μM): greater reduction of Id1 in H1299 cells compared to A549 cells; activity for VEGF II (comparison) [14]: less activity; inhibition of ca-alk3 activity (BRE-luciferase) [15]: significant inhibition; activity for platelet-derived growth factor receptor-β (comparison) [16]: less activity; cell death (percentage of cells taking up ethidium bromide) [17]: significant increase in cell death; Id1, Id2, and Id3 expression (mRNA) [18]: significantly decreased; anchorage independent growth [19]: significantly reduced; anchorage independent growth [20]: significantly reduced
